In PMC8196580, “Identification of Kaurane-Type Diterpenes as Inhibitors of Leishmania Pteridine Reductase I” (Molecules, 2021):
Read-outs that look alike come from different tables or passages of the source.

Columns and labels:
L. major [1] = tested on: L. major; parameters: method as in ChEMBL; conditions: ref ChEMBL, cited from earlier work
L. major [2] = experiment: ChEMBL dataset of pIC50 values against L. major used for the RF model (Table S1); type: cell-based, Leishmania major; also: call rule not given here
[3] = ChemBL structures with pIC50 values used for Random forest model construction (Table S1)
[4] = Active/Inactive class assigned to ChemBL structures for Random forest model construction (Table S1)
[5] = ChemBL structures with pIC50 values used for Random forest model construction, L. major
[6] = Active/Inactive class assigned to the ChEMBL pIC50 value for Random forest model construction, ref ChEMBL

SMILES	pIC50 Value (L. major [1]; [3])	Outcome (L. major [2]; [4])	pIC50 Value (L. major [1]; [5])	Outcome (L. major [2]; [6])
CCCCCCN(CCCCCC)c1ccc(Nc2c3ccccc3nc3ccccc23)cc1 [CHEMBL88123]	6.62	Active		
CCOC(=N)c1ccc(N2CCN(c3nnc(-c4ccc([N+](=O)[O-])o4)s3)CC2)cc1.Cl [CHEMBL1783199]			4.32	Inactive
COc1cc2c(c(OC)c1)C(C)N(c1ccc(OC)c3c(OC)cc(C)cc13)[C@@H](C)C2 (some centres unmarked) [CHEMBL479849]			4.19	Inactive
COc1ccc(/C=N/NC(=O)c2ccccc2OC)cc1OC [CHEMBL2382040]			4.88	Inactive
COc1cc(OC)c2c(C)[n+](-c3ccc(C)cc3)c(C)cc2c1 [CHEMBL520612]	5.58	Active		
CC(=O)C1=C(C)NC(=O)NC1c1cccc(C)c1 (centres unmarked) [CHEMBL3786214]	5.44	Active		
COc1cc(OC)c2c(C)[n+](-c3ccc(C)cc3C)c(C)cc2c1.F[B-](F)(F)F [CHEMBL482395]	5.48	Active		
Cc1ccc2cc(C3CC(c4sccc4Cl)=NN3)c(Cl)nc2c1 (centres unmarked) [CHEMBL2236140]	5.67	Active		
CN(C)CCNc1nccn2c(-c3ccncc3)c(-c3ccccc3)nc12 [CHEMBL3634363]			4.16	Inactive
COc1cc(C)c(-c2ccc3cc(C)nc(C)c3c2O)c2cccc(O)c12 [CHEMBL222221]			4.49	Inactive
Cl.N=C(NCC1CCCO1)c1ccc(N2CCN(c3nnc(-c4ccc([N+](=O)[O-])o4)s3)CC2)cc1 (centres unmarked) [CHEMBL1783208]			4.02	Inactive
CCOC(=O)C/C(=N/O)c1nnn[nH]1 [CHEMBL1255762]			4.00	Inactive
Cc1cccc2cc(C3CC(c4sccc4Br)=NN3)c(Cl)nc12 (centres unmarked) [CHEMBL2236132]	5.64	Active		
NP(=O)(OCc1c(F)cc([N+](=O)[O-])cc1F)N(CCCl)CCCl (centres unmarked) [CHEMBL1257018]	5.89	Active		
Cc1ccc(C2(c3ccc(C)cc3)C(=O)N(c3ccc(Cl)cc3)C2c2cn(C)c3ccccc23)cc1 (centres unmarked) [CHEMBL2071567]	5.94	Active		
O=[N+]([O-])c1ccc(-c2nnc(NCc3cn(Cc4ccc(Cl)cc4)nn3)s2)o1 [CHEMBL1951527]			4.05	Inactive
COc1cc(/C=N/NC(N)=S)ccc1OCc1cn(CC(=O)c2ccc(C)cc2)nn1 [CHEMBL4163267]	5.30	Active		
COc1cccc(-c2nc3ccc([N+](=O)[O-])cc3[nH]2)c1 [CHEMBL2298018]	5.52	Active		
C/C=C(\C)C(=O)NC1=CC[C@@]2(C)C(=CC[C@H]3[C@@H]4CC[C@H]([C@H](C)NC)[C@@]4(C)CC[C@@H]32)C1=O [CHEMBL525190]			4.67	Inactive
C=C[C@H]1CN2CCc3c([nH]c4ccccc34)[C@@H]2C[C@@H]1C(/C=C/OC)C(=O)OC (some centres unmarked) [CHEMBL3752140]	5.52	Active		
Cc1cccc2cc(/C=C/C(=O)c3sccc3Br)c(Cl)nc12 [CHEMBL1940869]	5.63	Active		
CCCCc1ccc(-[n+]2c(C)cc3cc(OC)cc(OC)c3c2C)cc1.F[B-](F)(F)F [CHEMBL481023]	5.57	Active		
COc1ccccc1-c1nnc(-c2ccc(C(=O)N/N=C/c3cccc([N+](=O)[O-])c3)cc2)o1 [CHEMBL4086911]			4.13	Inactive
COc1cc2c(c(OC)c1)C(C)N(c1cccc3ccccc13)C(C)C2 (centres unmarked) [CHEMBL520770]			4.18	Inactive
CN1CCN(c2nnc(-c3ccc([N+](=O)[O-])o3)s2)CC1 [CHEMBL372024]			5.14	Active
COc1ccccc1C(=O)N/N=C/c1ccc(Cl)cc1 [CHEMBL2382045]			4.16	Inactive

SMILES	pIC50 Value (L. major [1]; [3])	Outcome (L. major [2]; [4])	pIC50 Value (L. major [1]; [5])	Outcome (L. major [2]; [6])
Cc1cccc(Cn2cc(CNc3nnc(-c4ccc([N+](=O)[O-])o4)s3)nn2)c1 [CHEMBL1951529]			4.66	Inactive
Cc1ccc(-c2nc3ccccc3[nH]2)cc1 [CHEMBL2283280]	5.42	Active		
C[n+]1ccc(-c2c3nc(c(-c4cc[n+](C)cc4)c4ccc([nH]4)c(-c4cc[n+](C)cc4)c4nc(c(-c5cc[n+](C)cc5)c5ccc2[nH]5)C=C4)C=C3)cc1.Cc1ccc(S(=O)(=O)[O-])cc1.Cc1ccc(S(=O)(=O)[O-])cc1.Cc1ccc(S(=O)(=O)[O-])cc1.Cc1ccc(S(=O)(=O)[O-])cc1 [CHEMBL2170855]			4.68	Inactive
O=C(/C=C/c1ccc(-n2ccnc2)cc1)c1ccc(Cl)c(Cl)c1 [CHEMBL570738]	5.54	Active		
Cc1ccc2cc(C3CC(c4cc(C)sc4C)=NN3)c(Cl)nc2c1 (centres unmarked) [CHEMBL2236139]	5.67	Active		
COc1ccc(/C=N\NC(N)=S)cc1OCc1cn(CC(=O)c2ccccc2)nn1 [CHEMBL4171583]	5.36	Active		
CC(C)(O)[C@@H]1CC[C@](C)([C@H]2[C@@H](O)C[C@@]3(C)[C@@H]4C[C@H](O)[C@H]5C(C)(C)[C@@H](O[C@@H]6OC[C@@H](O)[C@H](O)[C@H]6O)CC[C@@]56C[C@@]46CC[C@]23C)O1 [CHEMBL500607]			4.25	Inactive
COc1ccc(-c2csc3c2C2=NCCN2C=N3)cc1OC [CHEMBL1256890]			4.00	Inactive
Cc1ccc(C(=O)/C=C/c2cc3cccc(C)c3nc2Cl)s1 [CHEMBL1940864]	5.73	Active		
CN(C)c1nccn2c(-c3ccncc3)c(-c3ccc(F)cc3)nc12 [CHEMBL3634367]			5.19	Active
CCC/C=C/C=C/c1nc2ccccc2n2cccc12 [CHEMBL3260210]	5.41	Active		
O/N=C1/c2ccccc2OC(c2ccc(Cl)cc2)C1n1ccnc1 (centres unmarked) [CHEMBL4083146]	6.22	Active		
Clc1ccccc1-c1nc2ccccc2[nH]1 [CHEMBL473162]	5.47	Active		
CN1CCN(c2nnc(-c3ccc([N+](=O)[O-])s3)s2)CC1 [CHEMBL371217]			3.99	Inactive
COc1cc2c(c(OC)c1)C(C)=[N+](c1ccc3cc(C)cc(OC)c3c1O)[C@@H](C)C2.O=C([O-])C(F)(F)F [CHEMBL426747]	5.91	Active		
C[C@@H](OP(N)(=O)N(CCCl)CCCl)c1ccc([N+](=O)[O-])cc1 (some centres unmarked) [CHEMBL2158071]			4.52	Inactive
CN(C)Cc1ccc(Nc2c3ccc(Cl)cc3nc3cc(Cl)ccc23)cc1 [CHEMBL36404]	5.70	Active		
c1ccc2[nH]c(-c3c[nH]c4ccccc34)nc2c1 [CHEMBL2298015]	5.43	Active		
Cn1c([N+](=O)[O-])cnc1-c1nnc(N2CCN(C(=O)c3ccccc3Cl)CC2)s1 [CHEMBL482464]			4.69	Inactive
CCCCCCN(C)c1ccc(Nc2c3ccc(Cl)cc3nc3ccc(OC)cc23)cc1 [CHEMBL315133]	5.74	Active		
Cc1ccc(-c2nc3ccccc3[nH]2)o1 [CHEMBL2298017]	5.37	Active		
CCCc1ccc(-[n+]2c(C)cc3cc(OC)cc(OC)c3c2C)cc1.F[B-](F)(F)F [CHEMBL517690]	5.79	Active		
O=[N+]([O-])c1ccc2nc(-c3cccnc3)[nH]c2c1 [CHEMBL159327]	5.48	Active		
CC[C@H](CO)Nc1nc(NCc2cccc(OC)c2O)c2ncn(C(C)C)c2n1 [CHEMBL2349189]			4.01	Inactive
COc1cc(OC)c2c(C)[n+](-c3c(C)cc(C)cc3C)c(C)cc2c1.F[B-](F)(F)F [CHEMBL480824]	5.83	Active		
COc1cc2c(c(OC)c1)C(C)N(c1ccc(OC)c3c(OC)cc(C)cc13)[C@H](C)C2 (some centres unmarked) [CHEMBL479850]			4.18	Inactive
